Assay results from patent US12097213B2, “Sequential treatment of cancers using 6-thio-dG, checkpoint inhibitors and radiation therapy” (The Board of Regents of the University of Texas System, priority 2020, dated 2024).

Key:
[1] = test system: tumor cells; assay: Autophagy in tumor cells (data not shown); assay type: cell-based; conditions: after 6-thio-dG treatment
[2] = test system: HCT116 tumor cells; assay: HCT116 tumor model in NSG-SGM3 and humanized NSG-SGM3 mice; assay type: in vivo, mouse; conditions: three doses, 3 mg/kg
From the text: Humanized mouse tumor models. Humanized mouse reconstitution was previously described (Qiao et al., 2019). Briefly, four-week-old NSG-SGM3 female mice were irradiated with 100 cGy (X-ray irradiation with X-RAD 320 irradiator) one day prior to human CD34+ cells transfer. Cord blood was obtained from UT Southwestern Parkland Hospital. Human CD34+ cells were purified from cord blood by density gradient centrifugation (Ficoll® Paque Plus, GE healthcare) followed by positive immunomagnetic selection with anti-human CD34 microbeads (Stemcell). 1×10^5 CD34+ cells were intravenously injected into each recipient mouse. 12 weeks after engraftment, humanized mice with over 50% human CD45+ cells reconstitution and age and sex matched non-humanized mice were inoculated with 1×10^6 HCT116 tumor cells subcutaneously on the right flank. 3 mg/kg 6-thio-dG was intraperitoneally given on days 7, 8 and 9. Tumor volumes were measured twice a week. Experiments were performed in compliance with UTSW Human Investigation Committee protocol and UTSW Institutional Animal Care and Use Committee.

[3] = test system: tumor-derived xenograft models; conditions: many tumor-derived xenograft models; cited from earlier work
[4] = test system: DCs co-cultured with MC38 cells; assay: Detection of EdU-labeled tumor DNA in bone marrow derived dendritic cells; assay type: cell-based, mouse; conditions: MC38 labeled with 25 μM EdU, 1 μM 6-thio-dG
Method: Detection of DNA in Bone Marrow Derived Dendritic Cells. Cells were labeled with EdU as described previously (Min et al., 2019). Briefly, 100,000 MC38 cells were seeded to 6-well plate and labeled with 25 μM EdU. Two days later, cells were washed out and treated with 1 μM 6-thio-dG for 24 hrs. Cells were washed out again and co-cultured with BMDCs for overnight. Next day, DCs were sorted out with magnetic beads, washed, fixed and cytospun. Slides were then stained with 6-carboxytetramethlyrhodamine fluorescent azide (Invitrogen) in fresh homemade EdU-staining solution (PBS containing 1 mM CuSO4, 2 mM ascorbic acid) for 30 min. Slides were then washed vigorously with PBS for at least 1 hr, and then telomere FISH steps using a FAM-TelG probe were followed as described in “Telomere dysfunction Induced Foci (TIF) and micronuclei assays” method parts. Images were captured at 63× magnification with an Axio Imager Z2 equipped with an automatic metaphase capture system (Coolcubel camera) and analyzed with ISIS software (Metasystems).

[5] = test system: cancer cells; conditions: depending on cell type, even including therapy resistant cancers; read-out: observed IC50 values; cited from earlier work
[6] = test system: MC38 cells; assay: Colony formation assay; assay type: cell-based, mouse; conditions: 0.5 μM 6-thio-dG every three days for 13 days
Method: Colony formation assay. MC38 cells were seeded in three different concentrations on six well plates (1000-4000 cells/well) and treated with various drug concentrations every 3-4 days. Following 13 days treatment, cells were fixed and stained with 6% glutaraldehyde (Fisher Scientific) plus 0.5% crystal violet (Sigma) solution. After washing with tap water, cells were air-dried and images captured using a G-BOX (Syngene, model: G-BOX F3).

[7] = test system: MC38 cells; assay: Cell viability assay (CellTiter 96), MC38; assay type: cell-based; conditions: Mus musculus, MC-38, 120 h; cells treated for 5 days; read-out: IC50 concentration, cell viability
Method: (§1) Cell viability assay. For determination of IC50 with cell proliferation assays, murine and human cancer cell lines were screened with 6-thio-dG with a 2-fold dilution series in 8 different points in 96-well plates. Cells were plated 24 hrs prior to the addition of drug, incubated for 4-5 days, and assayed using CellTiter 96® Aqueous One Solution Cell Proliferation Assay according to the manufacturer's instructions (Promega). Cell number per well ranged from 1,000 to 10,000 cells per well inversely proportional to doubling times. Dose response curves were generated and IC50s calculated using Graphpad Prism. All samples were analyzed in triplicate and standard deviations are from 2-3 independent experiments.

[8] = test system: HCT116 human colon cancer cells; assay: Cell viability assay (CellTiter 96), HCT116; assay type: cell-based; conditions: HCT-116, 120 h, cells treated for 5 days
Method: as §1

[9] = test system: LLC murine lung cancer cells; assay: Cell viability assay (CellTiter 96), LLC; assay type: cell-based, mouse; conditions: treated for 4 days
Method: as §1

[10] = test system: mouse BMDC co-cultured with HCT116; assay: Cytosolic DNA extraction and qPCR in DCs co-cultured with HCT116; assay type: cell-based; conditions: HCT116 pretreated with 500 nM 6-thio-dG; co-culture 4 hrs
Method: Cytosolic DNA extraction and quantitative real-time PCR. HCT 116 cells were pretreated with 500 nM 6-thio-dG for 4 hrs. Then drug was washed out, tumor cells were continued to culture for 72 hrs and harvest on the same day as BMDC harvest. Then HCT116 cells were mixed 1:1 with 1×10^6 BMDC for 4 hrs. BMDC was purified and divided into two equal aliquots.
One aliquot was extracted for total genomic DNA with Purelink Genomic DNA kit (Invitrogen) and served as normalization control. The other aliquot was resuspended in 100 μL cytosolic extract buffer containing 150 mM NaCl, 50 mM HEPES and […] digitonin (Sigma) and incubated for 10 mins at RT for plasma membrane permeabilization (West et al., 2015). Then cells were centrifuged to pellet intact cells. The cytosolic supernatants were collected and centrifuged at 12000 g for 10 mins to pellet the remaining cellular debris. Then cytosolic DNA was extracted with Purelink Genomic DNA kit (Invitrogen). Quantitative PCR was performed on both whole-cell extracts and cytosolic fractions using human DNA primers and mouse DNA primers (Xu et al., 2017).
Quantitative real-time PCR. […]

For Nc1nc2c(ncn2[C@H]2C[C@H](O)[C@@H](CO)O2)c(=S)[nH]1 [6-thio-dG, 6-thio-2′-deoxyguanosine], the “activation of autophagy in tumor cells” value [1] was “did not see activation of autophagy”, the tumor growth ([2]; humanized NSG-SGM3 mice) was “significantly delayed tumor growth” and the tumor growth ([2]; immunocompromised NSG-SGM3 mice) was “did not have significant difference”. The “side effects in xenograft models” value [3] was “minimal side effects”, the “tumor response in xenograft models” value [3] was “rapid tumor shrinkage or growth arrest” and the “telomere co-localization with EdU in EdU+ DCs” value [4] was “increase”. The IC50 [5] was 700 to 2900 nM, the cells forming colonies [6] was “less than 50%” and the IC50 [7] was 370 nM. The IC50 [8] was 730 nM, the “cell viability in vitro” value [9] was “cell viability inhibition” and the “human DNAs (MT-CO1 and human 18S) in the cytosol of mouse DCs” value [10] was “increase”.
